The values below come from PMC10412597, “Small molecule branched-chain ketoacid dehydrogenase kinase (BDK) inhibitors with opposing effects on BDK protein levels” (Nature Communications, 2023).

Holding throughout (parameters): Cerep Bioprint off-target panel, functional receptor agonism or antagonism
Assay [1] concerns the target T1, Angiotensin 1 (Homo sapiens, UniProt P30556).
T1 construct: gene AGTR1
T1 sequence (P30556 1-359): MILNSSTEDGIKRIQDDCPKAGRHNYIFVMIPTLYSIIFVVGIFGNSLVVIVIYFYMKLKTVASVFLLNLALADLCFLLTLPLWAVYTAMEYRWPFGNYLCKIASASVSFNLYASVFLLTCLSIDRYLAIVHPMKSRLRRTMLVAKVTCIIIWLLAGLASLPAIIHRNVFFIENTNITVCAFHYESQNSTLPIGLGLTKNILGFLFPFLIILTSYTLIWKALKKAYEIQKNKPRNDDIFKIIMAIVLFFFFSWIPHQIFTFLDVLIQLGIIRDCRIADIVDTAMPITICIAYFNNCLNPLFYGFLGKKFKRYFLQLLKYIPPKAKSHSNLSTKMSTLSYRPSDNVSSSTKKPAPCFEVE
As to the method:
(§1) To discover a potent and selective BDK inhibitor, a subset of the Pfizer compound collection was screened. […] Off target activity was assessed in both CEREP and kinase panels (Supplementary Tables 2, 3).

The target of assay [2] is T2, Corticotrophin Releasing Factor 1 (CRF1) Receptor (Homo sapiens, UniProt P34998).
T2 construct: gene CRHR1
T2 sequence (P34998 1-415): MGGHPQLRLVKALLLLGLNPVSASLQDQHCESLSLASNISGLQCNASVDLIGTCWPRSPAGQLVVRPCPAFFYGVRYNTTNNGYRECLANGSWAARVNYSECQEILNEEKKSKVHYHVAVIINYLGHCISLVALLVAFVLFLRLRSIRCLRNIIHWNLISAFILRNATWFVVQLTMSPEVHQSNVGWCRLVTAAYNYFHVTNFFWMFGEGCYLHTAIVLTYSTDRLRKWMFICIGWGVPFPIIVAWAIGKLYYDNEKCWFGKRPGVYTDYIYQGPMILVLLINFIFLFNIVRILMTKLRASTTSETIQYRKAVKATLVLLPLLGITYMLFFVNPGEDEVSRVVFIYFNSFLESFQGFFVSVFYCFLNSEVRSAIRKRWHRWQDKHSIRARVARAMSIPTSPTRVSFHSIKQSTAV
The protocol: as §1

The target of assay [3] is T3, Endothelin A (Homo sapiens, UniProt P25101).
T3 construct: gene EDNRA
Particulars: agonist. The protocol: as §1

Assay [4] addresses T4, Histamine H2 (Homo sapiens, UniProt P25021).
T4 construct: gene HRH2
Particulars: agonist. As to the method: as §1

Assay [5] deals with T5, Histamine H3 (Homo sapiens, UniProt Q9Y5N1).
T5 construct: gene HRH3
The conditions noted are these: agonist. As to the method: as §1

For assay [6], the target named is T6, Kappa Opioid (Homo sapiens, UniProt P41145).
T6 construct: gene OPRK1
Particulars: agonist. As to the method:
as §1

In assay [7] the target is T7, Melanocortin MC2 Receptor (Homo sapiens, UniProt Q01718).
T7 construct: gene MC2R
The protocol: as §1

Assay [8] deals with T8, Mu Opioid (Homo sapiens, UniProt P35372).
T8 construct: gene OPRM1
The conditions noted are these: agonist. The protocol: as §1

Assay [9] concerns the target T9, Muscarinic 1 (Homo sapiens, UniProt P11229).
T9 construct: gene CHRM1
T9 sequence (P11229 1-460): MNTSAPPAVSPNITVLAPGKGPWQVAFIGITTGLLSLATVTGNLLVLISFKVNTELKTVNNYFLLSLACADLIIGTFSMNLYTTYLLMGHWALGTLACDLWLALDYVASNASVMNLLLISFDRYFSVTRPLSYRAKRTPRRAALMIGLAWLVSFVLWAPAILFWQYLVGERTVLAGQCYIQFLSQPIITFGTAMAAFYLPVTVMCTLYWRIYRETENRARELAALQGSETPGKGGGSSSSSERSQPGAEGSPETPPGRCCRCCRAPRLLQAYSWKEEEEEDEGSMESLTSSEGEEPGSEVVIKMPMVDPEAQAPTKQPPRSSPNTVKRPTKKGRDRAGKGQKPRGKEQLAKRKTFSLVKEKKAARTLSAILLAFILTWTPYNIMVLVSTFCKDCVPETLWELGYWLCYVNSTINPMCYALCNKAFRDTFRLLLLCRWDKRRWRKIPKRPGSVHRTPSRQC
As to the method: as §1

The target in assay [10] is T10, Muscarinic 2 (Homo sapiens, UniProt P08172).
T10 construct: gene CHRM2
T10 sequence (P08172 1-466): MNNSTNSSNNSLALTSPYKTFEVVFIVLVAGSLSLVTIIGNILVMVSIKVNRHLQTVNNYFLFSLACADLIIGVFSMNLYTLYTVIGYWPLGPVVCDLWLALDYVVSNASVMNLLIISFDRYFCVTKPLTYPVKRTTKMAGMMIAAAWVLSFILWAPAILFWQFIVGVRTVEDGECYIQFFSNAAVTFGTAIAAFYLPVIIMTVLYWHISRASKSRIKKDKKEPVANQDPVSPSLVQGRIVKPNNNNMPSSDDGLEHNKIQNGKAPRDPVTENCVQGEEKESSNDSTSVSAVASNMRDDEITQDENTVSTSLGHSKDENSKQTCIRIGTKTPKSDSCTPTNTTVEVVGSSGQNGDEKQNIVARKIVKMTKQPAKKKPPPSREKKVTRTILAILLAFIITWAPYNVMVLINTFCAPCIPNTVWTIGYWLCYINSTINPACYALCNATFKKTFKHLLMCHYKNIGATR
The protocol:
as §1

Assay [11] addresses T11, Serotonin 5-HT4e (Homo sapiens, UniProt Q13639).
T11 construct: gene HTR4; isoform 4e
Particulars: agonist. As to the method:
as §1

T7 sequence (Q01718 whole entry): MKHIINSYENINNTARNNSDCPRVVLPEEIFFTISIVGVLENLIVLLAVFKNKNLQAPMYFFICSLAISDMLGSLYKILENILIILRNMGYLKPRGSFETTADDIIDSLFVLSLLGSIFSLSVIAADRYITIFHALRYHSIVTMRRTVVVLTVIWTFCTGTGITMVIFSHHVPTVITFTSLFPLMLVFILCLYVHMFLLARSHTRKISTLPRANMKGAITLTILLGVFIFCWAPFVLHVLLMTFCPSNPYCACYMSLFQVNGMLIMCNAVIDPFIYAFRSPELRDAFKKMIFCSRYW
T5 sequence (Q9Y5N1 whole entry): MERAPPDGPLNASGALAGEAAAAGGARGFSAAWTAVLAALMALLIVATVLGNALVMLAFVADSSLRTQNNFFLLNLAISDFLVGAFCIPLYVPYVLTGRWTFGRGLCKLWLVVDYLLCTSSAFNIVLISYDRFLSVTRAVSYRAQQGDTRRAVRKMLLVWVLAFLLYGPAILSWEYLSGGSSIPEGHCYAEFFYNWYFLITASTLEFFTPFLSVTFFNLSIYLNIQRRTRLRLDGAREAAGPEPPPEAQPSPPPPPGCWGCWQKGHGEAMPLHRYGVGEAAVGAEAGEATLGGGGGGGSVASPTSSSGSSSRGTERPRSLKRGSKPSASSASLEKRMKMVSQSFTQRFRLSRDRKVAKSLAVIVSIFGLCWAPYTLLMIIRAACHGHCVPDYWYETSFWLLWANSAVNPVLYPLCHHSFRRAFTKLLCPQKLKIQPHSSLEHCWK
T8 sequence (P35372 whole entry): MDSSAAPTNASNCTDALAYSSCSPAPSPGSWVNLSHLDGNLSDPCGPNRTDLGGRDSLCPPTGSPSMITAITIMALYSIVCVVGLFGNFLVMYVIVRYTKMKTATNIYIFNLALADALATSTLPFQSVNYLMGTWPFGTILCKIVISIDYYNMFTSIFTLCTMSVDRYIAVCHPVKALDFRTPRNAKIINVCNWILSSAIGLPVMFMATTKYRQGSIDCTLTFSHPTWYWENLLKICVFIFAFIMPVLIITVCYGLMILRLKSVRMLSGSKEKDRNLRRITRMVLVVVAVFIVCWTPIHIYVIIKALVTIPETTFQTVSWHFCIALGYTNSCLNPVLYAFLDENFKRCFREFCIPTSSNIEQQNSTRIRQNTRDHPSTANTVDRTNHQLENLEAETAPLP
T6 sequence (P41145 whole entry): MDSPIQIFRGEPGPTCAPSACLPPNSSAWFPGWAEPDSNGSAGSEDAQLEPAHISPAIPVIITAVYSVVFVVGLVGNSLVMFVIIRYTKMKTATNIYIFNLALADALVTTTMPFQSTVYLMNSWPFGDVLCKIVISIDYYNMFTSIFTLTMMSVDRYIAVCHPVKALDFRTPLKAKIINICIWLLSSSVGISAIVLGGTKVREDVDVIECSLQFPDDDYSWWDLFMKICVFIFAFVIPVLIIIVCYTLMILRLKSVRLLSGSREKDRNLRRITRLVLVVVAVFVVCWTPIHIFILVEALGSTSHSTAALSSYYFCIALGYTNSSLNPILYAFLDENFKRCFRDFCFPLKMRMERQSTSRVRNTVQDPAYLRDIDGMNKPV
T11 sequence (Q13639 whole entry, canonical isoform): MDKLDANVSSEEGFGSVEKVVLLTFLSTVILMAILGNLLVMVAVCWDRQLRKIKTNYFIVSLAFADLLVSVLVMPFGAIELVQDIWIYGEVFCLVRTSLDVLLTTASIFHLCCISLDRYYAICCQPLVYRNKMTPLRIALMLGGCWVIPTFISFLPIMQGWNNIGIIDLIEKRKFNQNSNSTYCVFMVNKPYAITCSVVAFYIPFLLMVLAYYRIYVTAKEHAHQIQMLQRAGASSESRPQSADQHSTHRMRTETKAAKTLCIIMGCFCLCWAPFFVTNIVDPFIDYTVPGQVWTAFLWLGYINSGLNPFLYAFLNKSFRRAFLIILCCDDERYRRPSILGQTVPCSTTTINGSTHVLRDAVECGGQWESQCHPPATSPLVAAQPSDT
T4 sequence (P25021 whole entry): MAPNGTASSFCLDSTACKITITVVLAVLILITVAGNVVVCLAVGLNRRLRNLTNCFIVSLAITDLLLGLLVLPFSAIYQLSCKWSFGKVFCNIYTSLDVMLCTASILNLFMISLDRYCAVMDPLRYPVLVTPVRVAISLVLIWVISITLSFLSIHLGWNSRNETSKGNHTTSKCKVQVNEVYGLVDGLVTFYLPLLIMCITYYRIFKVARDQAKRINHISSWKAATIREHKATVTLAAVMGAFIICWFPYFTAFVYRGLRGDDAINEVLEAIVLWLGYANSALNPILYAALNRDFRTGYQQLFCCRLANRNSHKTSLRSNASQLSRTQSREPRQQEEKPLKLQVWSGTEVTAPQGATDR
T3 sequence (P25101 whole entry): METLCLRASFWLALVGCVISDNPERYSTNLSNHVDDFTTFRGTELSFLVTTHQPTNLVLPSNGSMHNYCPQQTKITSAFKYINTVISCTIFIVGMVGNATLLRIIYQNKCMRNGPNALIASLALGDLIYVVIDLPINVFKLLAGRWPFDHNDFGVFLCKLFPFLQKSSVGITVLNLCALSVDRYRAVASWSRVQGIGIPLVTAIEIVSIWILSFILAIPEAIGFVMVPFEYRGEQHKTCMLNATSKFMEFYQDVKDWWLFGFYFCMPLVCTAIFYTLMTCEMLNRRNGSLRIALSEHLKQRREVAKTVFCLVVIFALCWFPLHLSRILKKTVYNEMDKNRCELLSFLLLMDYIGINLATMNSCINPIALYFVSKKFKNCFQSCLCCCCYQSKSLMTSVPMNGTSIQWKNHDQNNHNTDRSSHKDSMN

`O=C(O)c1sc2cc(F)sc2c1Cl` [PF-07208254, 3-chloro-5-fluorothieno[3,2-b]thiophene-2-carboxylic acid]: the “% (agonism) PF-07208254” value in [1] (100 µM, agonist) is recorded as 3%; in assay [2] (100 µM, agonist), -2%; in [3] (100 µM) it was 4%; in [4] (100 µM), 0%; in assay [5] (100 µM), 15%; in assay [6] (100 µM), -3%. In addition, the “% (agonism) PF-07208254” value in assay [7] (100 µM, agonist) is reported as 0%; in assay [8] (100 µM), 16%; in assay [9] (100 µM, agonist), -1%; in assay [10] (100 µM, agonist) it was 39%; in assay [11] (100 µM), 6%. Further, the “% Inhibition (antagonism) PF-07208254” value in assay [1] (100 µM, antagonist) is 18%; in [2] (100 µM, antagonist) it was 39%; in assay [7] (100 µM, antagonist) it was -4%; in assay [9] (100 µM, antagonist) it was 0%; in assay [10] (100 µM, antagonist) it was -7%.
In the case of `CCC1(COc2ccc(-c3csc(-c4ccccc4C(=O)O)n3)cn2)CC1` [PF-07247685, 2-(4-{6-[(1-ethylcyclopropyl)methoxy]pyridin-3-yl}-1,3-thiazol-2-yl)benzoic acid], the “% (agonism) PF-07247685” value in assay [1] (10 µM, agonist) is -8%; in assay [2] (10 µM, agonist), 4%; in assay [3] (10 µM) it was -4%; in assay [4] (10 µM), 1%; in [5] (10 µM) it was 4%; in assay [6] (10 µM) it was -7%. In addition, the “% (agonism) PF-07247685” value in assay [7] (10 µM, agonist) was 0%; in assay [8] (10 µM) it was -3%; in assay [9] (10 µM, agonist), 1%; in [10] (10 µM, agonist), 3%; in assay [11] (10 µM), 0%. The “% Inhibition (antagonism) PF-07247685” value was determined as 5% in assay [1] (10 µM, antagonist); 11% in [2] (10 µM, antagonist); 18% in assay [7] (10 µM, antagonist); 9% in assay [9] (10 µM, antagonist); 2% in assay [10] (10 µM, antagonist).
